Where no end group is shown, it is not given here. [ ]: non-standard residue; d: D form. Hyp = O=C(O)[C@@H]1C[C@@H](O)CN1

This note sets out measurements from patent US20220193180A1, “AGING PROGRESSION SUPPRESSING AGENT, AND FOOD OR BEVERAGE PRODUCT COMPRISING SAME” (NITTA GELATIN INC., priority 2019, published 2022).

One test deals with type 17 collagen gene. Nature of the test: Gene expression test: mRNA level of type 17 collagen gene in epidermal cells (RT-PCR, corrected with GAPDH). Type of test: cell-based, human. Set-up: key to Assessment (promoting action on type 17 collagen gene expression): samples with “++” were determined to have a significance in the promoting action on expression of the gene; In samples with “+”, the gene expression increase rate (%) exceeded 100; Samples with “−” were determined to have no significance in the promoting action on expression of the gene. The following applies: NHEK cells; for Assessment (promoting action on type 17 collagen gene expression) / Gene expression increase rate (type 17 collagen gene): 1 mM final concentration, 72 hours; for Gene expression increase rate (type 17 collagen gene): control = 100. As to the method:
(§1) First, normal human epidermal keratinocytes NHEK (NB) (manufactured by KURABO INDUSTRIES LTD.) were obtained as epidermal cells. The cells were seeded in a necessary number of commercially available dishes of ϕ60 mm at 1.25×10^4 cells per dish (5 mL of a cell dispersion liquid having a concentration of 0.25×10^4 cells/mL), and cultured in a serum-free medium (trade name: “HuMedia KG-2”, manufactured by KURABO INDUSTRIES LTD.) for 2 days. Then, the cells were confirmed to be subconfluent in the dishes, and the medium in the dishes was then replaced by a basal medium (trade name: “HuMedia KB-2”, manufactured by KURABO INDUSTRIES LTD.). In this way, epidermal cells for evaluating the mRNA level of the type 17 collagen gene and the mRNA level of the glutathione synthetase gene were prepared.
(§2) To the basal medium in the dishes, the peptide or the collagen peptide mixture was added to the concentrations shown in Tables 1 to 4, and the cells were cultured at 37° C. in an atmosphere at a carbon dioxide concentration of 5 vol % for 72 hours to prepare samples to be subjected to a gene expression test. In addition, a control sample obtained by adding only ion-exchanged water to the basal medium in the dish (hereinafter, also referred to as “Blank”) was prepared. This control sample was also cultured at 37° C. in an atmosphere at a carbon dioxide concentration of 5 vol % for 72 hours.
Next, by using a RNA extraction kit (trade name: “TRIzol (registered trademark) Reagent, manufactured by Life Technologies Japan Ltd.) in accordance with the protocol accompanying the kit, total RNA was extracted from the epidermal cells in the dish to obtain an extract containing total RNA for each sample. Subsequently, by using a cDNA preparation kit (trade name (product number): “High Capacity RNA-to-cDNA Kit (4387406)”, manufactured by Life Technologies Japan Ltd.) in accordance with the protocol accompanying the kit, reverse transcription was performed on RNA in the extract to obtain cDNA from the RNA in the extract. Further, real-time (RT)-PCR was performed on the cDNA by a DNA amplifying apparatus (trade name: “Step One Plus (TM) Real-Time PCR System”, manufactured by Applied Biosystems Inc.).
In the RT-PCR, the mRNA levels of type 17 collagen (manufactured by Life Technologies Japan Ltd., primer: Hs009900361_ml) as a target gene and glutathione synthetase (GSS, manufactured by Life Technologies Japan Ltd., primer: Hs01547656_ml) were measured. As an internal standard (correction gene), GAPDH was selected. For calculation of the mRNA level, a calibrated curve method was used. As the primer and the probe for the RT-PCR, those accompanying a reagent kit (trade name: “TaqMan (registered trademark) Gene Expression Assays, manufactured by Applied Biosystems Inc.) were used.
First, in the samples and the control sample, the mRNA levels (gene expression levels) of the two target genes (type 17 collagen and glutathione synthetase) were each calculated. Next, the mRNA levels of the two target genes were corrected with the mRNA level of GAPDH as a correction gene to obtain correction values in the samples and the control sample. Specifically, values obtained by dividing the mRNA levels of the two target genes by the mRNA level of GAPDH (relative values) were each determined.
Then, the ratio of the correction value obtained in each sample to the correction value in the control sample, which was defined as 100, was determined (gene expression increase rate (%)).
Further, the gene expression increase rate (%) was subjected to statistical processing to evaluate significance of the promoting action on gene expression of the type 17 collagen gene and the glutathione synthetase gene in each sample. […]

Test [1] deals with glutathione synthetase gene. Nature of the test: Gene expression test: mRNA level of glutathione synthetase gene in epidermal cells (RT-PCR, corrected with GAPDH). Type of test: cell-based, human. Conditions: NHEK cells, 1 mM final concentration, 72 hours; for Gene expression increase rate (glutathione synthetase gene): control = 100. As to the method:
as §1, §2
Next, by using a RNA extraction kit (trade name: “TRIzol (registered trademark) Reagent, manufactured by Life Technologies Japan Ltd.) in accordance with the protocol accompanying the kit, total RNA was extracted from the epidermal cells in the dish to obtain an extract containing total RNA for each sample. Subsequently, by using a cDNA preparation kit (trade name (product number): “High Capacity RNA-to-cDNA Kit (4387406)”, manufactured by Life Technologies Japan Ltd.) in accordance with the protocol accompanying the kit, reverse transcription was performed on RNA in the extract to obtain cDNA from the RNA in the extract. […]
In the RT-PCR, the mRNA levels of type 17 collagen (manufactured by Life Technologies Japan Ltd., primer: Hs009900361_ml) as a target gene and glutathione synthetase (GSS, manufactured by Life Technologies Japan Ltd., primer: Hs01547656_ml) were measured. […]
First, in the samples and the control sample, the mRNA levels (gene expression levels) of the two target genes (type 17 collagen and glutathione synthetase) were each calculated. […] Specifically, values obtained by dividing the mRNA levels of the two target genes by the mRNA level of GAPDH (relative values) were each determined.
Then, the ratio of the correction value obtained in each sample to the correction value in the control sample, which was defined as 100, was determined (gene expression increase rate (%)). […]

Take Glu-Hyp [EO, reference compound]: in the test on type 17 collagen gene, the “Assessment (promoting action on type 17 collagen gene expression)” value is reported as “−” and the “Gene expression increase rate (type 17 collagen gene)” value was 100 ± 6.46%. For the same substance, the “promoting action on type 17 collagen gene expression (in words)” value with type 17 collagen gene (discussion of Table 1) is “did not exhibit an evident promoting action”.

With Gly-Pro [GP], in the test on type 17 collagen gene, the “Assessment (promoting action on type 17 collagen gene expression)” value is given as “++” and the “Gene expression increase rate (type 17 collagen gene)” value is listed as 201 ± 8.42%. In test [1], the “Assessment (promoting action on glutathione synthetase gene expression)” value is recorded as “+ (In samples with “+”, the gene expression increase rate (%) exceeded 100)” and the “Gene expression increase rate (glutathione synthetase gene)” value came out at 106 ± 2%.

For the substance Glu-[Hyp]-Gly [EOG], in the test on type 17 collagen gene, the “Assessment (promoting action on type 17 collagen gene expression)” value is on record as “+ (In samples with “+”, the gene expression increase rate (%) exceeded 100)” and the “Gene expression increase rate (type 17 collagen gene)” value was 144 ± 17.01%. Moreover, in test [1], the “Assessment (promoting action on glutathione synthetase gene expression)” value is recorded as “+ (In samples with “+”, the gene expression increase rate (%) exceeded 100)” and the “Gene expression increase rate (glutathione synthetase gene)” value is given as 131 ± 10%.
